Assay results published in patent US11208400B2, “Substituted 6-(1H-pyrazol-1-yl)pyrimidin-4-amine derivatives and uses thereof” (Bayer Aktiengesellschaft, priority 2016, dated 2021).

molecular target: T1, human Npt2a (Homo sapiens, UniProt Q06495); assay: Npt2a activity cell based assay, membrane potential dye, CHO T-REx hNpt2a cells; conditions: doxycycline-induced, depolarization by sodium phosphate influx, average or median values if tested more than once
T1 construct: expressed in transfected cells
T1 sequence (Q06495 1-639): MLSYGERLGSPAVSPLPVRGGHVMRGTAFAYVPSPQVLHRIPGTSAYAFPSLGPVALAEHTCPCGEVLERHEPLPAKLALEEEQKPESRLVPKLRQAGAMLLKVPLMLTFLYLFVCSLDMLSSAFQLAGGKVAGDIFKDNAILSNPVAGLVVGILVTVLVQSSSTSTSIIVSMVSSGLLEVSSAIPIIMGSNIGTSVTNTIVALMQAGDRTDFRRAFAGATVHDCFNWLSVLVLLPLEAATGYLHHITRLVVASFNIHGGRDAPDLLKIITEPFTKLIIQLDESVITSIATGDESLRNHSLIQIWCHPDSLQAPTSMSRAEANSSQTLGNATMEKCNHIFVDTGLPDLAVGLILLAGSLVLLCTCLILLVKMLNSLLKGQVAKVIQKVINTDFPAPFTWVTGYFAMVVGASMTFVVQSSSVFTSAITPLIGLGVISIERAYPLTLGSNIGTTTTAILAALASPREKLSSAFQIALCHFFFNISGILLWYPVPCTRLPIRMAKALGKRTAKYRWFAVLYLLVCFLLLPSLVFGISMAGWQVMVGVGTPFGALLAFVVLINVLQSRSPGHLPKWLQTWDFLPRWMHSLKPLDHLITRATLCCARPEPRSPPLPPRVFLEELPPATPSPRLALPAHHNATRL
Summary of the method: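 Cells were doxycycline-induced CHO T-REx hNpt2a, dye-loaded and pretreated 5 min at RT with 1 nM–50 μM compound in Na-free pH 7.4 buffer. IC50 was fit to the post/pre-trigger fluorescence ratio.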

SMILES | IC50 [nM]
COc1c(C)nn(-c2cc(Nc3c(C)c(-c4ccc(C#N)cc4)nn3C)ncn2)c1C [Example 436, 4-(5-{[6-(4-methoxy-3,5-dimethyl-1H-pyrazol-1-yl)pyrimidin-4-yl]amino}-1,4-dimethyl-1H-pyrazol-3-yl)benzonitrile] | 10
COc1c(C)nn(-c2cc(Nc3c(C)c(-c4ccc(F)cc4)nn3C)ncn2)c1C [Example 437, N-[3-(4-fluorophenyl)-1,4-dimethyl-1H-pyrazol-5-yl]-6-(4-methoxy-3,5-dimethyl-1H-pyrazol-1-yl)pyrimidin-4-amine] | 21
CCOC(=O)c1c(C)nn(-c2cc(Nc3c(C)c(-c4ccc(F)cn4)nn3CC3CC3)ncn2)c1C [Example 438, ethyl 1-(6-{[1-(cyclopropylmethyl)-3-(5-fluoropyridin-2-yl)-4-methyl-1H-pyrazol-5-yl]amino}pyrimidin-4-yl)-3,5-dimethyl-1H-pyrazole-4-carboxylate] | 16
Cc1nn(-c2cc(Nc3c(C)c(-c4ccc(F)cn4)nn3CC3CC3)ncn2)c(C)c1Cl [Example 439, 6-(4-chloro-3,5-dimethyl-1H-pyrazol-1-yl)-N-[1-(cyclopropylmethyl)-3-(5-fluoropyridin-2-yl)-4-methyl-1H-pyrazol-5-yl]pyrimidin-4-amine] | 39
CCc1c(Nc2cc(-n3nc(C)c(CC(=O)OC(C)C)c3C)ncn2)nn(C)c1-c1ccc(F)cc1 [Example 440, propan-2-yl [1-(6-{[4-ethyl-5-(4-fluorophenyl)-1-methyl-1H-pyrazol-3-yl]amino}pyrimidin-4-yl)-3,5-dimethyl-1H-pyrazol-4-yl]acetate] | 97
Cc1cc(C)n(-c2cc(Nc3c(Cl)c(-c4ccc(C#N)cc4)nn3CC3CC3)ncn2)n1 [Example 441, 4-[4-chloro-1-(cyclopropylmethyl)-5-{[6-(3,5-dimethyl-1H-pyrazol-1-yl)pyrimidin-4-yl]amino}-1H-pyrazol-3-yl]benzonitrile] | 21
CCOC(=O)c1c(C)nn(-c2cc(Nc3c(Cl)c(-c4ccc(C#N)cc4)nn3CC3CC3)ncn2)c1C [Example 442, ethyl 1-(6-{[4-chloro-3-(4-cyanophenyl)-1-(cyclopropylmethyl)-1H-pyrazol-5-yl]amino}pyrimidin-4-yl)-3,5-dimethyl-1H-pyrazole-4-carboxylate] | 8
COc1c(Nc2cc(-n3nc(C)cc3C)ncn2)nn(C)c1-c1ccc(C#N)cc1 [Example 443, 4-(3-{[6-(3,5-dimethyl-1H-pyrazol-1-yl)pyrimidin-4-yl]amino}-4-methoxy-1-methyl-1H-pyrazol-5-yl)benzonitrile] | 11
COc1c(-c2ccc(C#N)cc2)nn(C)c1Nc1cc(-n2nc(C)cc2C)ncn1 [Example 444, 4-(5-{[6-(3,5-dimethyl-1H-pyrazol-1-yl)pyrimidin-4-yl]amino}-4-methoxy-1-methyl-1H-pyrazol-3-yl)benzonitrile] | 120
Cc1cc(C(F)F)n(-c2cc(Nc3c(Cl)c(-c4ccc(C#N)cc4)nn3CC3CC3)ncn2)n1 [Example 445, 4-[4-chloro-1-(cyclopropylmethyl)-5-({6-[5-(difluoromethyl)-3-methyl-1H-pyrazol-1-yl]pyrimidin-4-yl}amino)-1H-pyrazol-3-yl]benzonitrile] | 12
CCOC(=O)c1c(C)nn(-c2cc(Nc3c(OC)c(-c4ccc(C#N)cc4)nn3C)ncn2)c1C [Example 446, ethyl 1-(6-{[3-(4-cyanophenyl)-4-methoxy-1-methyl-1H-pyrazol-5-yl]amino}pyrimidin-4-yl)-3,5-dimethyl-1H-pyrazole-4-carboxylate] | 12
CCOC(=O)c1cc(C)nn1-c1cc(Nc2nn(C)c(-c3ccc(F)cc3)c2Cl)ncn1 [Example 447, ethyl 1-(6-{[4-chloro-5-(4-fluorophenyl)-1-methyl-1H-pyrazol-3-yl]amino}pyrimidin-4-yl)-3-methyl-1H-pyrazole-5-carboxylate] | 560
CCOC(=O)c1c(Cl)c(C)nn1-c1cc(Nc2c(Cl)c(-c3ccc(F)cc3)nn2C)ncn1 [Example 448, ethyl 4-chloro-1-(6-{[4-chloro-3-(4-fluorophenyl)-1-methyl-1H-pyrazol-5-yl]amino}pyrimidin-4-yl)-3-methyl-1H-pyrazole-5-carboxylate] | 440
CCOC(=O)c1c(C)nn(-c2cc(Nc3c(Cl)c(-c4ccc(F)cc4)nn3C)ncn2)c1C [Example 449, ethyl 1-(6-{[4-chloro-3-(4-fluorophenyl)-1-methyl-1H-pyrazol-5-yl]amino}pyrimidin-4-yl)-3,5-dimethyl-1H-pyrazole-4-carboxylate] | 8
COc1c(-c2ccc(F)cc2)nn(CC2CC2)c1Nc1cc(-n2nc(C)c(-c3nnc(C)o3)c2C)ncn1 [Example 450, N-[1-(cyclopropylmethyl)-3-(4-fluorophenyl)-4-methoxy-1H-pyrazol-5-yl]-6-[3,5-dimethyl-4-(5-methyl-1,3,4-oxadiazol-2-yl)-1H-pyrazol-1-yl]pyrimidin-4-amine] | 660
CC(=O)c1c(C)nn(-c2cc(Nc3c(C)nn(-c4ccc(C#N)cc4)c3C)ncn2)c1C [Example 451, 4-(4-{[6-(4-acetyl-3,5-dimethyl-1H-pyrazol-1-yl)pyrimidin-4-yl]amino}-3,5-dimethyl-1H-pyrazol-1-yl)benzonitrile] | 78
Cc1nn(-c2cc(Nc3c(C)c(-c4ccc(F)cc4)nn3CC3CC3)ncn2)c(C)c1CN1CC(F)C1 [Example 452, N-[1-(cyclopropylmethyl)-3-(4-fluorophenyl)-4-methyl-1H-pyrazol-5-yl]-6-{4-[(3-fluoroazetidin-1-yl)methyl]-3,5-dimethyl-1H-pyrazol-1-yl}pyrimidin-4-amine] | 16
CCOC(=O)c1c(C)nn(-c2cc(Nc3c(C)nn(-c4ccc(F)cc4)c3C)ncn2)c1C [Example 453, ethyl 1-(6-{[1-(4-fluorophenyl)-3,5-dimethyl-1H-pyrazol-4-yl]amino}pyrimidin-4-yl)-3,5-dimethyl-1H-pyrazole-4-carboxylate] | 18
CCOC(=O)c1c(C)nn(-c2cc(Nc3c(C)c(-c4ccc(C(F)F)cc4)nn3CC3CC3)ncn2)c1C [Example 454, ethyl 1-[6-({1-(cyclopropylmethyl)-3-[4-(difluoromethyl)phenyl]-4-methyl-1H-pyrazol-5-yl}amino)pyrimidin-4-yl]-3,5-dimethyl-1H-pyrazole-4-carboxylate] | 11
Cc1ccc(-c2nn(CC3CC3)c(Nc3cc(-n4nc(C)c(C(F)(F)F)c4C)ncn3)c2C)cn1 [Example 455, N-[1-(cyclopropylmethyl)-4-methyl-3-(6-methylpyridin-3-yl)-1H-pyrazol-5-yl]-6-[3,5-dimethyl-4-(trifluoromethyl)-1H-pyrazol-1-yl]pyrimidin-4-amine] | 165
Cc1nn(-c2cc(Nc3nn(C)c(-c4ccc(F)cc4)c3C)ncn2)c(C)c1C(O)CC(C)C (stereo not drawn) [Example 456, 1-[1-(6-{[5-(4-fluorophenyl)-1,4-dimethyl-1H-pyrazol-3-yl]amino}pyrimidin-4-yl)-3,5-dimethyl-1H-pyrazol-4-yl]-3-methylbutan-1-ol] | 41
Cc1cc(C)n(-c2cc(Nc3c(Cl)c(-c4ccccc4)nn3C)ncn2)n1 [Example 457, N-(4-chloro-1-methyl-3-phenyl-1H-pyrazol-5-yl)-6-(3,5-dimethyl-1H-pyrazol-1-yl)pyrimidin-4-amine] | 130
Cc1nn(-c2cc(Nc3c(C)c(-c4ccc(F)cn4)nn3CC3CC3)ncn2)c(C)c1C(C)(C)O [Example 458, 2-[1-(6-{[1-(cyclopropylmethyl)-3-(5-fluoropyridin-2-yl)-4-methyl-1H-pyrazol-5-yl]amino}pyrimidin-4-yl)-3,5-dimethyl-1H-pyrazol-4-yl]propan-2-ol] | 1550
COc1c(C)nn(-c2cc(Nc3nn(C)c(-c4ccc(F)cn4)c3C)ncn2)c1C [Example 461, N-[5-(5-fluoropyridin-2-yl)-1,4-dimethyl-1H-pyrazol-3-yl]-6-(4-methoxy-3,5-dimethyl-1H-pyrazol-1-yl)pyrimidin-4-amine] | 170
COc1c(-c2ccc(C#N)cc2)nn(C)c1Nc1cc(-n2nc(C)c(OC)c2C)ncn1 [Example 462, 4-(4-methoxy-5-{[6-(4-methoxy-3,5-dimethyl-1H-pyrazol-1-yl)pyrimidin-4-yl]amino}-1-methyl-1H-pyrazol-3-yl)benzonitrile] | 25
COc1c(C)nn(-c2cc(Nc3c(C)nn(-c4ccc(F)cc4)c3C)ncn2)c1C [Example 463, N-[1-(4-fluorophenyl)-3,5-dimethyl-1H-pyrazol-4-yl]-6-(4-methoxy-3,5-dimethyl-1H-pyrazol-1-yl)pyrimidin-4-amine] | 34
COc1c(C)nn(-c2cc(Nc3c(C)c(-c4ccc(C#N)cc4)nn3CC3CC3)ncn2)c1C [Example 464, 4-[1-(cyclopropylmethyl)-5-{[6-(4-methoxy-3,5-dimethyl-1H-pyrazol-1-yl)pyrimidin-4-yl]amino}-4-methyl-1H-pyrazol-3-yl]benzonitrile] | 2
